Data published in ChEMBL document CHEMBL2163217, “A straightforward approach for engineering efficacy and selectivity at GPCRs” (J Med Chem, 2012).
Calls of active or inactive are those of the source. No cut-off for these calls is given here.

Columns and labels:
Type in all cases: functional
[1] = target: D(3) dopamine receptor (Homo sapiens) (UniProt P35462); test: Partial agonist activity at D3 receptor
[2] = target: D(2) dopamine receptor (Homo sapiens) (UniProt P14416); test: Partial agonist activity at D2 receptor
[3] = target: D(3) dopamine receptor (Homo sapiens) (UniProt P35462); test: Partial agonist activity at D3 receptor relative to control
[4] = target: D(2) dopamine receptor (Homo sapiens) (UniProt P14416); test: Partial agonist activity at D2 receptor relative to control

Chain of D(3) dopamine receptor (Homo sapiens) (P35462 whole entry): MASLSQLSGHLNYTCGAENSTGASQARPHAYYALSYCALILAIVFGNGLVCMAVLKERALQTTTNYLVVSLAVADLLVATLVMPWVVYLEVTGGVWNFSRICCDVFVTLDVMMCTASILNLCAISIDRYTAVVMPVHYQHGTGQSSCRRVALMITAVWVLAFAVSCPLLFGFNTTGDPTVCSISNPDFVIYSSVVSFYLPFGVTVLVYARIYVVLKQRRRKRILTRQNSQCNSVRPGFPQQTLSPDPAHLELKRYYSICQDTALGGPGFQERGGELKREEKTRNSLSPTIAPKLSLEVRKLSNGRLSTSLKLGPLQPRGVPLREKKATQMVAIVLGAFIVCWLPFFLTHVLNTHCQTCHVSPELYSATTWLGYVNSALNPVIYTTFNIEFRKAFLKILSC
Chain of D(2) dopamine receptor (Homo sapiens) (P14416 whole entry): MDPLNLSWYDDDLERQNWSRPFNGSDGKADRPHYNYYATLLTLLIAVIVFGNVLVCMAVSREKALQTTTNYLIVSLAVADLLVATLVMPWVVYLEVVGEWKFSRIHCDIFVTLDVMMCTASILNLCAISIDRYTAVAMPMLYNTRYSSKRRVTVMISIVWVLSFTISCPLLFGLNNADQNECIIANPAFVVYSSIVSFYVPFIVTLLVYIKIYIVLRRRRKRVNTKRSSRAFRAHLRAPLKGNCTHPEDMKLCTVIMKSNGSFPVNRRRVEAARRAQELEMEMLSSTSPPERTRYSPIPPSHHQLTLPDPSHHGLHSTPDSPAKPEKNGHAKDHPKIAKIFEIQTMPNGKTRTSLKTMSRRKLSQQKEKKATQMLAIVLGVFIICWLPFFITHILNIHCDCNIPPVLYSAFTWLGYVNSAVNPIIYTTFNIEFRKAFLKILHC

Row | Compound | Activity [1] | Activity [2] | Emax [3] [%] | Emax [4] [%]
1 | COc1ccccc1N1CCN(CCCCNC(=O)c2cc3ccccc3[nH]2)CC1 | Active | Active | 8 | 8
2 | COc1ccccc1N1CCNCC1 |  |  |  | 14
3 | O=C(NCCCCN1CCN(c2cccc(Cl)c2Cl)CC1)c1cc2ccccc2[nH]1 | Active |  |  | 
4 | Clc1cccc(N2CCNCC2)c1Cl |  |  | 57.3 | 40.4
